One test concerns MMP-13. Briefly: MMP-13 Production Inhibition Test. The format is cell-based, human. The conditions noted are these: SW1353 cells stimulated with IL-1β 10 ng/mL, MMP-13 in culture supernatant by ELISA 16 hours after stimulation; for inhibition at 30 µM: Homo sapiens, 30 μmol/L, read-out: Inhibition rate (%) at 30 μmol/L. How it is done:
MMP-13 Production Inhibition Test
6.8×10^3 human cartilage derived cell line SW1353 cells were suspended in 100 μL of Dulbecco modified Eagle's medium supplemented with 10% fetal calf serum, plated on 96-well plates and cultured for 3 days. After the culture medium was changed to Dulbecco modified Eagle's medium containing 0.2% lactalbumin hydrolysate and the cells were cultured for 6 hours, […] were added and then IL-1β was added to obtain the final concentration of 10 ng/mL 1 hour later. 16 hours after the stimulation, supernatant was collected and the amount of MMP-13 in the culture supernatant was determined with an ELISA kit (Amersham). The inhibition rate was calculated from the amount of MMP-13 in the presence of a test compound assuming that the amount of MMP-13 was 100% in the absence of the test compound.
A general note: An ELISA detects its analyte on a solid surface through an enzyme-linked reagent.

The test system of the next test is DBA/1J mice. In words: Type II Collagen-induced Arthritis in Mice. It is filed as in vivo. The conditions noted are these: 30 mg/kg orally once a day from the 21st day to the 35th day, male DBA/1J mice. On the procedure: Type II Collagen-induced Arthritis in Mice
Eight-week old male DBA/1J mice were used (Charles River Laboratories Japan Inc.). 4 mg/mL bovine type II collagen (Collagen Gijutsu Kenshukai) dissolved in 0.01 mol/L of acetic acid aqueous solution and an equal amount of Freund's complete adjuvant (Chondorex) containing 1 mg/mL of killed tuberculosis bacillus were added to prepare an emulsion, and 0.1 mL thereof was intradermally injected at the base of tail. Similar treatment was conducted on the 21st day to cause arthritis. The test compound was suspended in 0.5% methylcellulose aqueous solution, and 30 mg/kg was orally administered once a day from the 21st day to the 35th day. In the control group, 0.5% methylcellulose aqueous solution was administered in the same manner. The severity of arthritis was estimated by scoring at zero point for an animal without change; one point for an animal with swelling at the one or two finger joint or light swelling only at the carpal or tarsal joint; two points for an animal with severe swelling at the carpal or tarsal joint or with swelling at three or more finger joints; three points for an animal with severe swelling along the whole foreleg or hindleg and thus counting 12 points at the maximum for the four limbs as arthritis score. […] The inhibitory rate was determined by the following expression. […]

Where a name gives a salt, the structure may show the parent alone.

As to `O=C(Nc1cc(-c2cccc(OC(F)(F)F)c2)ccc1C(=O)O)c1ccccc1` [Example 234, 2-(Benzamido)-4-(3-(trifluoromethoxy)phenyl)benzoic acid], the inhibition at 30 µM in the test on MMP-13 came out at 99%. On the same count and under the same terms, to `O=C(O)c1ccc(-c2ccccc2)cc1NC(=O)c1ccc(C(F)(F)F)cc1C(F)(F)F` [Example 318, 4-Phenyl-2-(2,4-bis(trifluoromethyl)benzamido)benzoic acid] belongs 95%; to `O=C(Nc1cc(-c2c(F)cccc2Cl)ccc1C(=O)O)c1ccccc1` [Example 251, 2-(benzamido)-4-(2-chloro-6-fluorophenyl)benzoic acid], 83%. `Cc1ccc(-c2ccc(C(=O)O)c(NC(=O)c3ccccc3)c2)cc1` [Example 240]: the “Inhibition rate (%) at 30 μmol/L” value with MMP-13 was 94%. On to `O=C(Nc1cc(Oc2cc(F)cc(F)c2)ccc1C(=O)O)c1ccccc1` [Example 539, 2-(benzamido)-4-(3,5-difluorophenoxy)benzoic acid], for which the inhibition at 30 µM in the test on MMP-13 is 97%.

In the case of `O=C(Nc1cc(-c2ccccc2)ccc1C(=O)O)c1ccc(O)cc1` [Example 399, 2-(4-Hydroxybenzamido)-4-phenylbenzoic acid], the inhibition at 30 µM with MMP-13 stood at 79%.

Regarding `O=C(Nc1cc(-c2ccccc2)ccc1C(=O)O)c1cccc(-c2ccccc2)c1` [Example 512, 2-(Biphenyl-3-carboxamido)-4-phenylbenzoic acid], the inhibition at 30 µM in the test with MMP-13 is 99%. The same measure, in the same setting: to `O=C(Nc1cc(-n2cnc3ccccc32)ccc1C(=O)O)c1ccccc1` [Example 415, 2-(benzamido)-4-(1H-benzimidazol-1-yl)benzoic acid hydrochloride] belongs 97%; to `O=C(Nc1cc(-c2ccc3c(c2)OCCO3)ccc1C(=O)O)c1ccccc1` [Example 15, 2-(Benzamido)-4-(2,3-dihydrobenzo[1,4]dioxin-6-yl)benzoic acid], 88%; to `O=C(Nc1cc(Oc2ccccc2)ccc1C(=O)O)c1ccc(N2CCOCC2)nc1` [Example 330, 2-(6-Morpholinopyridine-3-carboxamido)-4-phenoxybenzoic acid], 68%. Same read-out and setting: to `O=C(/C=C/c1ccc(Cl)c(Cl)c1)Nc1cc(Oc2ccccc2)ccc1C(=O)O` [Example 382, 2-((E)-3-(3,4-Dichlorophenyl)acrylamido)-4-phenoxybenzoic acid] belongs 98%; to `COc1ccc(-c2ccc(C(=O)O)c(NC(=O)c3ccccc3)c2)cc1` [Example 22, 2-(Benzamido)-4-(4-methoxyphenyl)benzoic acid], 81%; to `O=C(Nc1cc(CCc2ccccc2)ccc1C(=O)O)c1ccc(N2CCCCC2)nc1` [Example 525, 4-phenethyl-2-(6-(piperidin-1-yl)pyridine-3-carboxamido)benzoic acid], 87%. The same measure, in the same setting: the result for `O=C(Nc1cc(-c2ccccc2)ccc1C(=O)O)c1ccc(Cl)cc1` [Example 316, 2-(4-Chlorobenzamido)-4-phenylbenzoic acid] reads 96%; that for `O=C(Nc1cc(-c2ccc(O)cc2)ccc1C(=O)O)c1ccccc1` [Example 243, 2-(benzamido)-4-(4-hydroxyphenyl)benzoic acid], 96%; that for `O=C(Nc1cc(Oc2ccccc2)ccc1C(=O)O)c1ccc2c(c1)OCCO2` [Example 83, 2-(2,3-Dihydrobenzo[1,4]dioxin-6-carboxamido)-4-phenoxybenzoic acid], 93%. With `O=C(Nc1cc(CCCCc2ccccc2)ccc1C(=O)O)c1ccccc1` [Example 33, 2-(benzamido)-4-(4-phenylbutyl)benzoic acid], in the test on MMP-13, the inhibition at 30 µM amounted to 97%. Regarding `O=C(Nc1cc(CCc2ccccc2)ccc1C(=O)O)c1ccccc1` [Example 25, 2-(benzamido)-4-phenethylbenzoic acid], the “inhibitory action on bone destruction (bone destruction score)” value in the test on DBA/1J mice (X-ray of the four limbs on the 36th day) was “exhibited inhibitory action”. For the same molecule, the “inhibitory action on arthritis (arthritis score)” value in the test on DBA/1J mice was “exhibited inhibitory action”. For the same molecule, the inhibition at 30 µM in the test with MMP-13 amounted to 86%.

As to `CC(=O)c1cccc(C(=O)Nc2cc(Oc3ccccc3)ccc2C(=O)O)c1` [Example 505, 2-(3-Acetylbenzamido)-4-phenoxybenzoic acid], the inhibition at 30 µM in the test with MMP-13 came to 82%. `O=C(Nc1cc(-c2ccccc2)ccc1C(=O)O)c1ccc(F)c(F)c1` [Example 450, 2-(3,4-Difluorobenzamido)-4-phenylbenzoic acid]: the inhibition at 30 µM in the test with MMP-13 came to 98%. Still for that read-out and setting: the result for `Cc1ccc(C(=O)Nc2cc(CCc3ccccc3)ccc2C(=O)O)cc1C` [Example 261, 2-(3,4-Dimethylbenzamido)-4-phenethylbenzoic acid] reads 94%; that for `O=C(Nc1cc(Oc2ccccc2)ccc1C(=O)O)c1ccc2c(c1)OCO2` [Example 80, 2-(Benzo[1,3]dioxole-5-carboxamido)-4-phenoxybenzoic acid], 92%. Same read-out and setting: to `O=C(Nc1cc(-c2cccs2)ccc1C(=O)O)c1ccccc1` [Example 7, 2-(Benzamido)-4-(thiophen-2-yl)benzoic acid] belongs 91%; to `O=C(/C=C/c1cccc(Cl)c1)Nc1cc(-c2ccccc2)ccc1C(=O)O` [Example 358, 2-((E)-3-(3-Chlorophenyl)acrylamido)-4-phenylbenzoic acid], 99%; to `Cc1cccc(-c2ccc(C(=O)O)c(NC(=O)c3ccccc3)c2)c1C` [Example 230, 2-(Benzamido)-4-(2,3-dimethylphenyl)benzoic acid], 95%. Same read-out and setting: to `O=C(CCCc1ccccc1)Nc1cc(Oc2ccccc2)ccc1C(=O)O` [Example 467, 4-phenoxy-2-(4-phenylbutanamido)benzoic acid] belongs 90%; to `O=C(Nc1cc(CCc2ccccc2)ccc1C(=O)O)c1ccc(C(F)(F)F)cc1` [Example 264, 4-Phenethyl-2-(4-(trifluoromethyl)benzamido)benzoic acid], 94%; to `O=C(Nc1cc(Oc2ccccc2)ccc1C(=O)O)c1cccc(-c2ccccc2)c1` [Example 503, 2-(Biphenyl-3-carboxamido)-4-phenoxybenzoic acid], 99%. Turning to `O=C(Nc1cc(-c2cccc(Cl)c2)ccc1C(=O)O)c1ccccc1` [Example 222, 2-(benzamido)-4-(3-chlorophenyl)benzoic acid], the inhibition at 30 µM in the test with MMP-13 is 98%. On the same count and under the same terms, to `O=C(Nc1cc(OCc2ccccc2)ccc1C(=O)O)c1ccccc1` [Example 99, 2-(benzamido)-4-(benzyloxy)benzoic acid] belongs 71%; to `O=C(Nc1cc(CCc2ccccc2)ccc1C(=O)O)c1cncc(-n2cccc2)c1` [Example 276, 4-Phenethyl-2-(5-(1H-pyrrol-1-yl)pyridine-3-carboxamido)benzoic acid], 86%; to `O=C(Nc1cc(Oc2ccccc2)ccc1C(=O)O)c1ccc(F)cc1` [Example 89, 2-(4-Fluorobenzamido)-4-phenoxybenzoic acid], 94%.

In the case of `COc1ccc(-c2ccc(C(=O)O)c(NC(=O)c3ccccc3)c2)cc1OC` [Example 411, 2-(Benzamido)-4-(3,4-dimethoxyphenyl)benzoic acid], in the test on MMP-13, the inhibition at 30 µM was determined as 81%. Still for that read-out and setting: the result for `O=C(Nc1cc(/C=C/c2ccccc2)ccc1C(=O)O)c1ccccc1` [Example 24, 2-(benzamido)-4-((E)-2-phenylvinyl)benzoic acid] reads 92%.

The values are drawn from patent publication US7999132B2, “Anthranilic acid derivative or salt thereof” (Toyama Chemical Co., Ltd., priority 2004, dated 2011).
